According to patent publication US20090312556A1, “N-(2-AMINIPHENYL)-4-(5-((ETHYLAMINO)METHYL)-1,2-THIAZOL-2-YL) BENZAMIDE AND N-(2-AMINOPHENYL)-4-(5-((ISOPROPYLAMINO)METHYL)-1,2-THIAZOL-2-YL) BENZAMIDE AS HDAC INHIBITORS” (ASTRAZENECA R& D ALDERLY, priority 2004, published 2009):

Key:
[1] = target: T1, recombinant human HDAC1 (Homo sapiens, UniProt Q13547); assay: In vitro enzyme assay of recombinant HDAC1; assay type: biochemical; conditions: recombinant human HDAC1, acetylated histone H4 peptide; read-out: IC50 (nM) Test (a) (In vitro assay for the inhibition of HDAC1)
T1 construct: FLAG (C); made in house; host or cells: Hi5 insect cells
Description: HDAC inhibitors were screened against recombinant human HDAC1 produced in Hi5 insect cells. The enzyme was cloned with a FLAG tag at the C-terminal of the gene and affinity purified using Anti-FLAG M2 agarose from SIGMA (A2220).
The deacetylase assays were carried out in a 50 μl reaction. HDAC1 (75 ng of enzyme) diluted in 15 μl of reaction buffer (25 mM TrisHCl (pH 8), 137 mM NaCl, 2.7 mM KCl, 1 mM MgCl2) was mixed with either buffer alone (10 μl) or buffer containing compound (10 μl) for 30 minutes at ambient temperature. 25 μM acetylated histone H4 peptide (KI 174 Biomol) diluted in 25 μl of buffer was then added to the reaction and incubated for one hour at ambient temperature. The reaction was stopped by addition of an equal volume (50 μl) of Fluor de Lys developer (Biomol) containing Trichostatin A at 2 μM. The reaction was allowed to develop for 30 minutes at ambient temperature and then fluorescence measured at an excitation wavelength of 360 nm and an emission wavelength of 465 nm. IC50 values for HDAC enzyme inhibitors were determined by performing dose response curves with individual compounds and determining the concentration of inhibitor producing fifty percent decrease in the maximal signal (diluent control).

[2] = test system: HCT116 cells; assay: In vitro assay of inhibition of proliferation in whole cells (MTS); assay type: cell-based; conditions: Homo sapiens, HCT-116, 72 hours, read-out: IC50 (nM) Test (b) (In vitro assay for the inhibition of whole cell proliferation)
Description: Inhibition of proliferation in whole cells was assayed using the Promega cell titer 96 aqueous proliferation assay (Promega #G5421). HCT116 cells were seeded in 96 well plates at 1×10^3 cells/well, and allowed to adhere overnight. They were treated with inhibitors for 72 hours. 20 μl of the tetrazolium dye MTS was added to each well and the plates were re-incubated for 3 hours. Absorbance was then measured on a 96 well plate reader at […]. The IC50 values for HDAC inhibitors were determined by performing dose response curves with individual compounds and determining the concentration of inhibitor producing fifty percent decrease in the maximal signal (diluent control).

T1 sequence (Q13547 whole entry): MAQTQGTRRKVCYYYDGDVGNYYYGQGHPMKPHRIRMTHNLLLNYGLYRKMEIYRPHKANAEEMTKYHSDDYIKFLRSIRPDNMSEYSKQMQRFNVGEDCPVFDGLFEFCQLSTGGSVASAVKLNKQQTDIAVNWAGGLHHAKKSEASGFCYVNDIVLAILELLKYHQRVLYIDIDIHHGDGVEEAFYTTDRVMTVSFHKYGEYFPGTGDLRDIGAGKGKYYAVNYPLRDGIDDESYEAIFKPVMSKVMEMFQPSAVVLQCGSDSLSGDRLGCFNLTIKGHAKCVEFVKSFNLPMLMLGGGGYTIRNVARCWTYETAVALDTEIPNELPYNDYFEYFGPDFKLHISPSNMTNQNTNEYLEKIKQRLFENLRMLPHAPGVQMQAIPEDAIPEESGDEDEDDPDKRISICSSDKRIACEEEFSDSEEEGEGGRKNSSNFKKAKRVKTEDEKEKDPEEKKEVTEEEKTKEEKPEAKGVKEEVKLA

CC(C)NCc1cnc(-c2ccc(C(=O)Nc3ccccc3N)cc2)s1 [Example 1, N-(2-aminophenyl)-4-{5-[(isopropylamino)methyl]-1,3-thiazol-2-yl}benzamide]
IC50 [1]: 29 nM | IC50 [2]: 183 nM
